{
  "source": "patent EP0698347B1",
  "about": "“Food composition containing reuterin” (BIOGAIA BIOLOGICS AB, priority 1987, dated 1988)",
  "key": {"[1]": {"assay": "Antimicrobial activity of pure commercial preparations", "type": "cell-based", "conditions": "concentrations as high as 0.125M", "source_text": "Reuterin Is a Product of Glycerol Fermentation. Reuterin is a new product associated with the same type of heterolactic fermentation of glycerol that occurs in other Lactobacillus species. Reuterin can be isolated and identified as a product of glycerol fermentation by L. reuteri using HPLC."}, "spoilage pseudomonads": {"test_system": "spoilage pseudomonads", "assay": "Fish fillet storage: spoilage bacteria count (Table 8)", "conditions": "fish fillets dipped in treatment solution, 8°C for 4 days", "protocol": "Lactobacillus reuteri plus glycerol constitutes a novel effective food preservation process. Evidence for this was obtained using storage of fish as a model system. This study was conducted as follows: Fish fillets (Herring, Clupea harengas) were dipped in the following treatment solution: • control: no treatment • glycerol: 250 mM glycerol solution • strain 1068: 250 mM glycerol solution containing 4x10^9 CFU per ml L. reuteri 1068 (a non-reuterin producing strain) • strain 1063: 250 mM glycerol solution containing 4x10^9 CFU per ml L. reuteri 1063 The fillets (2 parallel samples each) were kept in large Petri dishes at 8°C for 4 days in a refrigerator. The ammonia content and CFU of relevant bacteria (i.e., spoilage pseudomonads and added lactobacilli) were then analyzed to evaluate the shelf-life of the food product. […] L. reuteri 1068 did so to some extent but not enough to prevent spoilage which is generally indicated by a log 8.4 pseudomonad count. • (iii) the retarding effect of L. reuteri and glycerol on spoilage bacteria has a strong reducing effect on ammonia liberation. • (iv) a food preservative effect of L. reuteri plus glycerol is indicated for all kinds of food spoilage."}, "E. coli [2]": {"test_system": "E. coli", "assay": "Co-culture of E. coli with and without L. reuteri 1063 on various substrates (Table 1)", "type": "cell-based", "design": "% Inhibition: concentration or dose not given beside the values", "conditions": "for E. coli (CFU/ml) after 6 hours: substrate 20 mM (C6, C5) or 40 mM (C3), inoculum 5 x 10^6 CFU per ml E. coli", "protocol": "(§1) Conditions under which reuterin is produced have been determined. Reuterin is not produced under aerobic conditions (atmospheric oxygen concentration) but under reduced oxygen tension. It is produced when L. reuteri is cultured anaerobically (or semi-anaerobically in still culture) in the MIC assay medium described above containing 20-500 mM glycerol or glyceraldehyde in place of glucose as the major carbon and energy source. […] Twenty other substances, including hexoses, hexitols, pentoses, pentitols, disaccharides and a variety of phosphorylated and non-phosphorylated C3-substances, were tested for their ability to support reuterin production. […] The medium, containing a substrate at 20 mM (C6 and C5 substrates) or 40 mM (C3 substrates) concentrations, was inoculated with 5 x 10^6 colony-forming units (CFU) per ml E. coli with and without L. reuteri. Only glycerol and glyceraldehyde yielded reuterin. Also, réuterin production from glycerol is inhibited when glucose or another growth substrate is included in the production medium. The results shown in Table 2 indicate the percent inhibition in viable count of a 6.7 x 10^7 CFU per ml E. coli inoculum by supernatant fractions of L. reuteri grown on various indicated substrates at 40 mM concentrations."}, "E. coli [3]": {"test_system": "E. coli", "assay": "Inhibition of E. coli by supernatant fractions of L. reuteri grown on various substrates (Table 2)", "type": "cell-based", "protocol": "as §1"}},
  "data": [
    {"smiles": "OCC(O)CO", "note": "[Glycerol]", "values": [
      {"measurement": "antimicrobial activity", "setting": "[1]", "value": "essentially devoid of antimicrobial activity"},
      {"measurement": "Log CFU bacteria per g Pseudomonads (kings agar)", "setting": "spoilage pseudomonads", "value": 9.4, "unit": "Log CFU bacteria per g"},
      {"measurement": "E. coli (CFU/ml) after 6 hours", "setting": "E. coli [2]; Addition of L. reuteri 1063: +", "value": "5.5x10^4 CFU/ml"},
      {"measurement": "E. coli (CFU/ml) after 6 hours", "setting": "E. coli [2]; Addition of L. reuteri 1063: -", "value": "1.2x10^7 CFU/ml"},
      {"measurement": "% Inhibition", "setting": "E. coli [2]; E. coli with versus without L. reuteri 1063 on the substrate, 6 hours", "value": 99, "unit": "%"},
      {"measurement": "% Inhibition", "setting": "E. coli [3]; percent inhibition in viable count of 6.7 x 10^7 CFU per ml E. coli inoculum by supernatant fraction, substrate 40 mM", "value": 99.9, "unit": "%"},
      {"measurement": "Growth of E. coli presence of centrifuged culture medium CFU/ml after 6 hours", "setting": "E. coli [3]; supernatant fraction of L. reuteri grown on the substrate at 40 mM, inoculum 6.7 x 10^7 CFU per ml E. coli", "value": "4.5x10^5 CFU/ml"}
    ]}
  ]
}
